From publication PMC11537802, “The Neuroprotection of 1,2,4‐Triazole Derivative by Inhibiting Inflammation and Protecting BBB Integrity in Acute Ischemic Stroke” (CNS Neuroscience & Therapeutics, 2024)

Tests used:
[1] = test system: mice model of increased peritoneal capillary permeability; experiment: acetic acid-induced increased peritoneal capillary permeability model (Evans blue in peritoneal lavage); format: in vivo, Kunming mice
Procedure: Sixty Kunming mice were randomly divided into control group, SYS18 low, medium, and high‐dose groups (20, 40, and 80 mg/kg, respectively), and positive control group was given celecoxib (40 mg/kg), 10 mice in each group. The mice in each group were administrated with 0.2 mL/10 g once a day for three consecutive days.
One hour after the last administration, 2% Evans blue saline 0.1 mL/10 g was injected via the tail vein, and 0.6% acetic acid 0.2 mL/10 g was injected intraperitoneally immediately. Twenty minutes later, the mice were killed, the abdominal cavity was cut open, and the abdominal cavity was washed several times with 5 mL normal saline to collect washing fluid. The samples were centrifuged at 4700 r/min for 5 min, and the lateral absorbance at the wavelength of 620 nm was measured with a UV spectrophotometer to compare the differences between groups.
Acetic acid‐induced increased peritoneal capillary permeability in mice is a classic model of peripheral inflammation. Anti‐inflammatory effects of SYS18 were evaluated by using an increased peritoneal capillary permeability assay. After intravenous injection of Evans blue saline solution, intraperitoneal injection of acetic acid was used to increase peritoneal capillary permeability in mice. The peritoneal capillary permeability of mice in each group was compared by collecting peritoneal lavage fluid and measuring abdominal Evans blue absorbance.

MCAO rats [2] = experiment: neurological score (Zea-Longa) in MCAO rats; format: in vivo, Sprague–Dawley rats; settings: 48 h after surgery
Excerpt: (§1) C57BL/6 mice were randomly assigned to treatment groups by body weight. Operator blind to treatment status of animals. After the mice were anesthetized, a midline cervical incision was made. The left common carotid artery and external carotid artery were isolated and ligated. Arterial clamps were placed at the preparation line and distal end of the internal carotid artery. An incision was made at the bifurcation of the common carotid artery. 4–0 nylon line was inserted to a depth of 17–20 mm. The nylon line entered the internal carotid artery; then, it entered the skull to the anterior cerebral artery and blocked all blood flow sources in the middle cerebral artery. After keeping ischemic for 1 h, the animals were re‐anesthetized and then pulled out the nylon line for about 1 cm to achieve reperfusion for up to 48 h. The wound was disinfected with iodophor, and the skin was sutured. Put them on the electric blanket to maintain the body temperature after the completion of surgery; then, they were returned to cages upon recovery. For the sham group, except that no nylon line is inserted, other steps are the same as above. Sham group and model group were given 20% polyoxyethylene castor oil. Subsequently, the animals were sacrificed, and the serum and brains were collected for a series of subsequent analyses and studies.
Rats were randomly divided into five groups: Sham group (n = 24), rats received sham operation; MCAO model group (n = 30); SYS18 low‐dose group (7.5 mg/kg, n = 30); SYS18 high‐dose group (15 mg/kg, n = 30); and Positive control group rats were intraperitoneally injected with edaravone (15 mg/kg, n = 30). […]
According to Zea‐Longa 4‐point scoring criteria, the animals were scored for neurological function at 48 h after surgery. […] And the degree of each animal model was scored as follows: 0 point, no symptoms of nerve injury; 1 point, inability to fully extend the forepaw; 2 points, circling laterally; 3 points, tip to the opposite side; 4 points, inability to walk spontaneously and loss of consciousness. […]

MCAO rats [3] = experiment: brain water content (dry/wet weight) in MCAO rats; format: in vivo, Sprague–Dawley rats; settings: 48 h reperfusion, model 83.18% ± 0.71%
Procedure: (§2) Rats were randomly divided into five groups: Sham group (n = 24), rats received sham operation; MCAO model group (n = 30); SYS18 low‐dose group (7.5 mg/kg, n = 30); SYS18 high‐dose group (15 mg/kg, n = 30); and Positive control group rats were intraperitoneally injected with edaravone (15 mg/kg, n = 30). The tested compound was dissolved in 20% polyoxyethylene castor oil and was administered 0.5 h before operation and 6, 12, 24, and 36 h after reperfusion. The measurements were carried out 48 h after the operation. Ten animals in each group were used to measure brain water content, and 10 animals in each group were used to detect Evans blue content in brain tissue. Ten animals in each group were used for determination of biochemical indicators and pathological observations and WB experiments.
The brain water content was evaluated by measuring difference between the dry and wet weights of brains. Briefly, after rats were sacrificed after 48 h of reperfusion, the brains were measured immediately to obtain the wet weights. Then, the brains were drying in a constant temperature oven at 100°C for 24 h, followed by measurements to obtain the dry weights. Brain water content was calculated according to the following formula, brain water content = 100% × (wet weight − dry weight)/wet weight.

MCAO mice = experiment: brain edema volume by T2-weighted MRI in MCAO mice; format: in vivo, C57BL/6 mice; settings: SYS18 30 mg/kg twice a day, about 48 h after MCAO, model 36.64% ± 2.69%, p < 0.0001
Excerpt: as §1
Serial brain images were acquired approximately 48 h after MCAO. […]

MDA = experiment: serum MDA in MCAO rats (kit); format: in vivo, Sprague–Dawley rats; settings: 15 mg/kg (high dose), 48 h, p < 0.05
Procedure: as §2
(§3) Blood sample was collected at 48 h after MCAO. After centrifugation at 4°C × 12,000 g for 10 min, the clear supernatant was stored at −80°C. The components of SOD, MDA, TNF‐α, and IL‐1β in the blood samples were measured according to the instructions of the assay kits.

SOD = experiment: serum SOD in MCAO rats (kit); format: in vivo, Sprague–Dawley rats; settings: 15 mg/kg, 48 h
Procedure: as §2, §3

TNF‐α = experiment: serum TNF-α in MCAO rats (ELISA); format: in vivo, Sprague–Dawley rats; settings: 15 mg/kg, 48 h, p < 0.05
Procedure: as §2, §3

IL‐1β = experiment: serum IL-1β in MCAO rats (ELISA); format: in vivo, Sprague–Dawley rats; settings: 15 mg/kg, 48 h, p < 0.05
Procedure: as §2, §3

MCAO rats [4] = experiment: hematoxylin and eosin staining of brain tissue in MCAO rats; format: in vivo, Sprague–Dawley rats; settings: high-dose SYS18 (15 mg/kg), 48 h ischemia–reperfusion
Procedure: as §2
Hematoxylin and eosin staining were used to observe the effect of SYS18 on pathological changes in ischemia–reperfusion brain tissue. After 48 h of ischemia–reperfusion, the rats were sacrificed, and the brains were immediately fixed with 4% paraformaldehyde after transcranial perfusion with ice‐cold saline (The damaged brain is located in the ischemic penumbra of the right brain. Through HE staining and pathological sectioning under a microscope, the area where neuronal cells are morphologically intact and have not yet degenerated or necrotic is determined as the ischemic penumbra). […]

MCAO rats [5] = experiment: blood–brain barrier permeability (Evans blue content in brain) in MCAO rats; format: in vivo, Sprague–Dawley rats; settings: 48 h
Procedure: as §2
The integrity of the BBB was investigated using Evans blue (EB). Forty‐six hours after reperfusion, rats were injected with EB (4% saline, 4 mL/kg) via the tail vein. Two hours later, rats were anesthetized and perfused with saline through the left ventricle until colorless perfusate. After hydrangea and brainstem were removed, the brains were collected and homogenized. Evans blue was extracted from the brain with N,N‐dimethylformamide. After centrifugation at 3700 rpm for 15 min, the absorbance of supernatant was detected at 620 nm wavelength.

syndecan‐1 = experiment: glycocalyx component syndecan-1 in MCAO rats (ELISA); format: in vivo, Sprague–Dawley rats; settings: SYS18 high dose 15 mg/kg, 48 h, p < 0.05
Procedure: as §2
(§4) Blood and brain sample were collected at 48 h after MCAO. After centrifugation at 4°C × 12,000 g for 10 min, the clear supernatant was stored at −80°C. Their concentrations of syndecan‐1, HS, and heparanase (HPSE) were determined using an ELISA kit. […] Substrates A and B were added, and the substrate was catalyzed by HRP to produce a product, which eventually converted under the action of a stop solution, and the absorbance (OD value) was measured at a wavelength of 450 nm on a microplate reader.

HS = experiment: glycocalyx component HS in serum of MCAO rats (ELISA); format: in vivo, Sprague–Dawley rats; settings: SYS18 high dose 15 mg/kg, 48 h, p < 0.05
Procedure: as §2, §4

heparanase (HPSE) = heparanase (HPSE) in brain of MCAO rats (ELISA); format: in vivo, Sprague–Dawley rats; settings: SYS18 high dose 15 mg/kg, 48 h, p < 0.05
Procedure: as §2, §4

claudin‐5 = experiment: immunofluorescence of claudin-5 in brain of MCAO rats; format: in vivo, Sprague–Dawley rats; settings: high-dose SYS18 (15 mg/kg)
Procedure: as §2
(§5) Immunofluorescence testing selects the same area as HE staining to observe and analyze the fluorescence level in the field of view. After deparaffinization of the paraffin sections to water, the tissue sections were subjected to antigen retrieval in a microwave oven in a retrieval box filled with citric acid antigen retrieval buffer (pH 6.0), and the sections were incubated overnight at 4°C with rabbit monoclonal anti‐MMP‐9 (1:100), rabbit polyclonal anti‐claudin‐5 (1:200). […]

MMP‐9 = experiment: immunofluorescence of MMP-9 in brain of MCAO rats; format: in vivo, Sprague–Dawley rats; settings: high-dose SYS18 (15 mg/kg)
Procedure: as §2, §5

[6] = blood–brain distribution and PK of SYS18 in rats after intraperitoneal injection; settings: for Kp: brain/plasma
Procedure: The blood samples were anticoagulated with EDTA and stored at 4°C, then centrifuged at 4°C at 4000 r/min for 10 min. The plasma concentrations were detected simultaneously (plasma stored at −80°C refrigerator). The whole brain was stored at −80°C for later detection and then uniformly prepared into brain tissue homogenate to detect drug concentration. Use Excel to analyze the drug concentration—time data pharmacokinetic parameters through atrioventricular method.

[7] = 15 mg/kg (SYS18 high dose; edaravone i.p.), model 2.42 ± 0.84, p < 0.01
[8] = 15 mg/kg (SYS18 high dose; edaravone)
[9] = 15 mg/kg (SYS18 high dose; or edaravone positive control)

SMILES: COc1ccc(-c2nc(-c3ccccc3O)n(-c3ccc(S(N)(=O)=O)cc3)n2)c(O)c1 [SYS18, 4‐(3‐(2‐hydroxy‐4‐methoxyphenyl)‐5‐(2‐hydroxyphenyl)‐1H‐1,2,4‐triazol‐1‐yl) benzenesulfonamide]
- absorbance of Evans blue in peritoneal lavage fluid vs model group ([1]; SYS18 high dose 80 mg/kg once a day for 3 days): no statistical difference
- absorbance of Evans blue in peritoneal lavage fluid vs model group ([1]; SYS18 low dose 20 mg/kg once a day for 3 days): did not significantly reduce
- concentration of Evans blue in peritoneal lavage fluid vs model group ([1]; SYS18 medium dose 40 mg/kg once a day for 3 days): significantly reduced
- neurological score (MCAO rats [2]; 7.5 mg/kg (low dose), model 2.42 ± 0.84, p > 0.05): 1.95 ± 0.74
- neurological score (MCAO rats [2]; [7]): 1.52 ± 0.68
- brain water content (MCAO rats [3]; 7.5 mg/kg (low dose), p > 0.05): 81.98% ± 1.18%
- brain water content (MCAO rats [3]; [8]): 80.62% ± 1.73%
- brain edema volume (T2-MRI) (MCAO mice): 11.01% ± 5.32%
- MDA levels in serum vs model group (MDA): reduced MDA levels in serum significantly
- SOD level in serum vs model group (SOD): could improve SOD level in serum
- TNF-α in serum vs model group (TNF‐α): significantly decreased
- IL-1β in serum vs model group (IL‐1β): significantly decreased
- histological damage of nerve cells in cerebral cortex (HE staining) (MCAO rats [4]): the necrosis of nerve cell in the brain tissue was attenuated
- Evans blue content in brain tissue (MCAO rats [5]; 7.5 mg/kg (low dose), p > 0.05 vs model): 7.06 ± 1.58 µg/g
- Evans blue content in brain tissue (MCAO rats [5]; [9]): 5.74 ± 0.54 µg/g
- syndecan-1 in brain tissue vs model group (syndecan‐1): significantly increased
- HS in serum vs model group (HS): decreased
- HPSE in brain tissue vs model group (heparanase (HPSE)): decreased
- fluorescent intensity of claudin-5 vs model group (claudin‐5): fluorescent intensity increased
- fluorescent intensity of MMP-9 vs model group (MMP‐9): decreased
- Cmax ([6]; SD, rat, brain, ip, 15 mg/kg): 464 ng/g
- MRT ([6]; SD, rat, brain, ip, 15 mg/kg): 7.15 h
- k el ([6]; SD, rat, brain, ip, 15 mg/kg): 3.75e-05 s⁻¹
- Kp ([6]; SD, rat, ip, 15 mg/kg, B/P (ratio of total drug concentration in brain to plasma), rats, 15 mg/kg i.p., at 1–2 h): > 0.2
- Kp ([6]; SD, rat, ip, 15 mg/kg, B/P (ratio of total drug concentration in brain to plasma), rats, 15 mg/kg i.p., at 4–6 h): > 0.4
- Kp ([6]; SD, rat, ip, 15 mg/kg, cerebral‐blood ratio of area under the curve (AUC0‐t), rats, 15 mg/kg i.p.): > 0.4
- Tmax ([6]; SD, rat, in vivo, ip, 15 mg/kg): 2 h
- half-life ([6]; SD, rat, in vivo, ip, 15 mg/kg): 5.12 h
- CL/F ([6]; SD, rat, plasma, ip, 15 mg/kg): 16.7 mL/min/kg
- Cmax ([6]; SD, rat, plasma, ip, 15 mg/kg): 1850 ng/mL
- MRT ([6]; SD, rat, plasma, ip, 15 mg/kg): 3.87 h
- Tmax ([6]; SD, rat, plasma, ip, 15 mg/kg): 1 h
- Vd/F ([6]; SD, rat, plasma, ip, 15 mg/kg): 3 L/kg
- half-life ([6]; SD, rat, plasma, ip, 15 mg/kg): 3.17 h
- k el ([6]; SD, rat, plasma, ip, 15 mg/kg): 6.06e-05 s⁻¹
- AUC ([6]; SD, rat, plasma, ip, 15 mg/kg, AUC0‐inf_obs, blood, rats, 15 mg/kg i.p.): 8520 ng·h/mL
- AUC ([6]; SD, rat, plasma, ip, 15 mg/kg, AUC0‐t, blood, rats, 15 mg/kg i.p.): 8440 ng·h/mL
- AUC ([6]; SD, rat, plasma, ip, 15 mg/kg, area under the curve (AUC0‐t), blood, rats): 8440 ng·h/mL
- AUMC0‐inf_obs ([6]; blood, rats, 15 mg/kg i.p.): 32940.745 ng/mg × h^2
- Tlag ([6]; blood, rats, 15 mg/kg i.p.): 0 h
- AUC0‐inf_obs ([6]; brain, rats, 15 mg/kg i.p.): 3700.110 ng·h/mg
- AUC0‐t ([6]; brain, rats, 15 mg/kg i.p.): 3504.387 ng·h/mg
- AUMC0‐inf_obs ([6]; brain, rats, 15 mg/kg i.p.): 26458.752 ng/mg × h^2
- Tlag ([6]; brain, rats, 15 mg/kg i.p.): 0 h
- area under the curve (AUC0‐t) ([6]; brain, rats, i.p.): 3500 ng·h/mg

SMILES: CC1=NN(c2ccccc2)C(=O)C1 [edaravone, reference compound]
- neurological score (MCAO rats [2]; [7]): 1.50 ± 0.61
- brain water content (MCAO rats [3]; [8]): 81.13% ± 1.98%
- SOD level in serum vs model group (SOD): could improve SOD level in serum
- TNF-α in serum vs model group (TNF‐α): significantly decreased
- IL-1β in serum vs model group (IL‐1β): significantly decreased
- Evans blue content in brain tissue (MCAO rats [5]; [9]): 6.20 ± 2.76 µg/g
